According to patent US20200172473A1, “DUAL MODULATORS OF FARNESOID X RECEPTOR AND SOLUBLE EPOXIDE HYDROLASE” (JOHANN WOLFGANG GOETHE-UNIVERSITÄT FRANKFURT AM MAIN, priority 2017, published 2020):
Where two headings read alike, the source gives them in different places.

What was measured:
[1] = target: T1, FXR-LBD (Homo sapiens, UniProt Q96RI1); assay: isothermal titration calorimetry (ITC); assay type: binding
T1 sequence (Q96RI1 262-486 limits assumed): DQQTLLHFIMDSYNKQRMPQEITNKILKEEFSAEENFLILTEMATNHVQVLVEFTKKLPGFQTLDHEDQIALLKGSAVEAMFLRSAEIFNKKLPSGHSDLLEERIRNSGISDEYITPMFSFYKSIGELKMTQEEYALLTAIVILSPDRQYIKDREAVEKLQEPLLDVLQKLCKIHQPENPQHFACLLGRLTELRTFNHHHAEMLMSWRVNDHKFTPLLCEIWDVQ

[2] = target: T2, PPARδ (Homo sapiens, UniProt Q03181); assay: Gal4-hybrid reporter gene assay PPARδ in HEK293T cells; assay type: cell-based; conditions: 10 μM
T2 construct: pFA-CMV-hPPARδ-LBD; expressed in transfected cells; host or cells: HEK293T
T2 sequence (Q03181 211-439 limits assumed): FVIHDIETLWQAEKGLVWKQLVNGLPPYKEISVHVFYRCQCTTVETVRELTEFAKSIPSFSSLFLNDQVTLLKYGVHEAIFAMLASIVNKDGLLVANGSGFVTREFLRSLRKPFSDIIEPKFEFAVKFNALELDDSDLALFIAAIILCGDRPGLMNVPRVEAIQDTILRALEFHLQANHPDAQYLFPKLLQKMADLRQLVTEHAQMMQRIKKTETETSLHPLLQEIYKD
Excerpt: (§1) Hybrid reporter gene assays for PPARα/γ/δ, LXRα/β, RXRα/β/γ, RARα/β/γ, VDR and PXR Plasmids: The Gal4-fusion receptor plasmids pFA-CMV-hPPARα-LBD^52, pFA-CMV-hPPARγ-LBD^52, pFA-CMV-hPPARδ-LBD^52, pFA-CMV-hLXRα-LBD^32 and pFA-CMV-hLXRβ-LBD^32 have been reported previously. […] Frame and sequence of all fusion receptors were verified by sequencing. pFR-Luc (Stratagene) was used as reporter plasmid and pRL-SV40 (Promega) for normalization of transfection efficiency and cell growth.
(§2) Assay procedure: HEK293T cells were grown in DMEM high glucose, supplemented with 10% FCS, sodium pyruvate (1 mM), penicillin (100 U/mL) and streptomycin (100 μg/mL) at 37° C. and 5% CO2. The day before transfection, HEK293T cells were seeded in 96-well plates (2.5·10^4 cells/well). Before transfection, medium was changed to Opti-MEM without supplements. Transient transfection was carried out using Lipofectamine LTX reagent (Invitrogen) according to the manufacturer's protocol with pFR-Luc (Stratagene), pRL-SV40 (Promega) and pFA-CMV-hRXRα-LBD. 5 h after transfection, medium was changed to Opti-MEM supplemented with penicillin (100 U/mL), streptomycin (100 μg/mL), now additionally containing 0.1% DMSO and the respective test compound or 0.1% DMSO alone as untreated control. […] Luminescence was measured with an Infinite M200 luminometer (Tecan Deutschland GmbH). […]

[3] = target: T3, LXRβ (Homo sapiens, UniProt P55055); assay: Gal4-hybrid reporter gene assay LXRβ in HEK293T cells; assay type: cell-based; conditions: 10 μM; printed as both LXR subtypes
T3 construct: pFA-CMV-hLXRβ-LBD; expressed in transfected cells; host or cells: HEK293T
T3 sequence (P55055 222-460 limits assumed): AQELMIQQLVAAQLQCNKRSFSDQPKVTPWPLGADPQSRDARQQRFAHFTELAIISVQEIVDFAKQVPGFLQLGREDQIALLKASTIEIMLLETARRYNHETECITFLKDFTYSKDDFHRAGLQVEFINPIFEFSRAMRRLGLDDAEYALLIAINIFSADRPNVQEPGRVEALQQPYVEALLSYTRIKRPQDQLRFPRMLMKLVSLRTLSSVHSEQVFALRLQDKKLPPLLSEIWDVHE
Excerpt: as §1, §2

[4] = test system: FXR target genes
Method: Data was analyzed according to the 2^ΔΔCt method and all results were normalized to the values of the house-keeping gene glycerinaldehyde 3-phosphate dehydrogenase (GAPDH). Gene expression of vehicle treated control cells was defined as 100%.
Two micrograms of total RNA were extracted from HepG2 cells by the Total RNA Mini Kit (R6834-02, Omega Bio-Tek, Inc., Norcross, Ga., USA). […] FXR target gene expression was evaluated by quantitative real time PCR analysis with a StepOnePlus™ System (Life Technologies, Carlsbad, Calif., USA) using PowerSYBRGreen (Life Technologies; 12.5 μL per well). The primers are listed in the supporting information. Each sample was set up in duplicates and repeated in at least three independent experiments. The expression was quantified by the comparative ΔΔCt method and glycerinaldehyde 3-phosphate dehydrogenase (GAPDH) served as reference gene.

Compound: CC(C)(C)c1ccc(C(=O)NCc2ccc(NS(C)(=O)=O)cc2Cl)cc1 [compound 57, 4-(tert-Butyl)-N-(2-chloro-4-(methylsulfonamido)benzyl)benzamide]
- Kd [1]: 130 nM
- ΔH (ITC) [1]: -19.5 kcal/mol
- ΔS (ITC) [1]: −34.0 cal/mol·K
- activity on PPARδ [2]: inactive
- activity on LXRβ [3]: inactive
- BSEP mRNA expression compared to vehicle set as 100% ([4]; HepG2, 0.1 μM, 8 or 16 h): 216±18%
- FABP1 mRNA expression compared to vehicle set as 100% ([4]; HepG2, 0.1 μM, 8 or 16 h): 183±34%
- FAS mRNA expression compared to vehicle set as 100% ([4]; HepG2, 0.1 μM, 8 or 16 h): 22±8%
- FGF19 mRNA expression compared to vehicle set as 100% ([4]; HepG2, 0.1 μM, 8 or 16 h): 309±101%
- PDK4 mRNA expression compared to vehicle set as 100% ([4]; HepG2, 0.1 μM, 8 or 16 h): 255±54%
- PPARα mRNA expression compared to vehicle set as 100% ([4]; HepG2, 0.1 μM, 8 or 16 h): 170±11%
- SHP mRNA expression compared to vehicle set as 100% ([4]; HepG2, 0.1 μM, 8 or 16 h): 242±61%
- SREBP1c mRNA expression compared to vehicle set as 100% ([4]; HepG2, 0.1 μM, 8 or 16 h): 49±17%
- BSEP mRNA expression compared to vehicle set as 100% ([4]; HepG2, 1 μM, 8 or 16 h): 222±20%
- FABP1 mRNA expression compared to vehicle set as 100% ([4]; HepG2, 1 μM, 8 or 16 h): 194±42%
- FGF19 mRNA expression compared to vehicle set as 100% ([4]; HepG2, 1 μM, 8 or 16 h): 325±77%
- PDK4 mRNA expression compared to vehicle set as 100% ([4]; HepG2, 1 μM, 8 or 16 h): 226±57%
- PPARα mRNA expression compared to vehicle set as 100% ([4]; HepG2, 1 μM, 8 or 16 h): 211±10%
- SHP mRNA expression compared to vehicle set as 100% ([4]; HepG2, 1 μM, 8 or 16 h): 317±78%
- amplitude of induction of SHP, PPARα, FGF19, PDK4 and FABP1 relative to CDCA (1b) ([4]; HepG2, % of CDCA (1b) at 50 μM): 50-80%
